Source: US10457709B2, “Antimicrobial peptides, their variants and uses” (priority 2015, dated 2019)
Like-named read-outs stand apart in the source and are kept apart here. Square brackets hold non-standard residues; d marks the D form. Peptide text beside a SMILES is read from it.

Legend:
[1] = tested on: C. glabrata clinical strains; test: MIC, clinical yeast strains; type: cell-based, Candida glabrata; parameters: unit: µg/ml
Summary of the method: (§1)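 Broth microdilution in Mueller Hinton broth, inoculum adjusted to 5.0×10^5 cfu/ml, peptides tested at 0.125 to 128 μg/ml, 37° C for 20 to 24 hours. Yeast assays were run in potato dextrose broth. MIC was taken as the lowest concentration with no visible growth.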

[2] = tested on: Proteus mirabilis clinical strains; type: cell-based; parameters: Minimum inhibitory concentration: unit: μg/ml; conditions: for Minimum inhibitory concentration: microdilution, Muller Hinton broth-cation adjusted, 0.02% BSA, 0.2% acetic acid
Summary of the method: as §1

[3] = tested on: Serratia marcescens clinical strains; type: cell-based; parameters: Minimum inhibitory concentration: unit: μg/ml; conditions: for Minimum inhibitory concentration: microdilution, Muller Hinton broth-cation adjusted, 0.02% BSA, 0.2% acetic acid
Summary of the method: as §1

[4] = tested on: Streptococcus pneumoniae clinical strains; type: cell-based; parameters: Minimum inhibitory concentration: unit: μg/ml; conditions: microdilution, Muller Hinton broth-cation adjusted, 0.02% BSA, 0.2% acetic acid
Summary of the method: as §1

[5] = tested on: Staphylococcus aureus clinical strains; type: cell-based; parameters: Minimum inhibitory concentration: unit: μg/ml; conditions: microdilution, Muller Hinton broth-cation adjusted, 0.02% BSA, 0.2% acetic acid
Summary of the method: as §1

[6] = tested on: Enterobacter cloacae clinical strains; type: cell-based; parameters: Minimum inhibitory concentration: unit: μg/ml; conditions: microdilution, Muller Hinton broth-cation adjusted, 0.02% BSA, 0.2% acetic acid
Summary of the method: as §1

[7] = tested on: Acinetobacter baumannii clinical strains; type: cell-based; parameters: Minimum inhibitory concentration: unit: μg/ml; conditions: microdilution, Muller Hinton broth-cation adjusted, 0.02% BSA, 0.2% acetic acid
Summary of the method: as §1

[8] = tested on: Candida albicans clinical strains; test: MIC, clinical yeast strains; type: cell-based; parameters: unit: μg/ml
Summary of the method: as §1

[9] = tested on: C. quillermondiae clinical strains; test: MIC, clinical yeast strains; type: cell-based, Candida quillermondiae; parameters: unit: μg/ml; conditions: C. quillermondiae clinical yeast strain 1
Summary of the method: as §1

[10] = tested on: all the bacteria and yeasts tested; type: cell-based
Summary of the method: as §1

[11] = tested on: Escherichia coli clinical strains; type: cell-based; conditions: microdilution, Muller Hinton broth-cation adjusted, 0.02% BSA, 0.2% acetic acid
Summary of the method: as §1

[12] = tested on: Pseudomonas aeruginosa clinical strains; type: cell-based; conditions: microdilution, Muller Hinton broth-cation adjusted, 0.02% BSA, 0.2% acetic acid
Summary of the method: as §1

[13] = tested on: Klebsiella pneumoniae clinical strains; type: cell-based; conditions: microdilution, Muller Hinton broth-cation adjusted, 0.02% BSA, 0.2% acetic acid
Summary of the method: as §1

[14] = tested on: C. parapsilosis clinical strains; test: MIC, clinical yeast strains; type: cell-based, Candida parapsilosis; parameters: unit: µg/ml
Summary of the method: as §1

CC[C@@H](C)[C@@H](NC(=O)[C@@H](Cc1c[nH]c2ccccc12)NC(=O)[C@H](N)CCCCN)C(=O)N[C@@H](C(=O)N[C@H](Cc1c[nH]c2ccccc12)C(=O)N[C@H](CCCNC(=N)N)C(=O)N[C@H](Cc1c[nH]c2ccccc12)C(=O)N[C@H](CCCNC(=N)N)C(=O)N[C@H](Cc1ccccc1)C(=O)N[C@H](CCCCN)C(=O)N[C@H](CCCNC(=N)N)C(=O)O)C(C)C [Chain201D] (H-[dK][dW][dI][dV][dW][dR][dW][dR][dF][dK][dR]-OH)
Minimum inhibitory concentration ([1]; C. glabrata clinical yeast strain 1): 8
Minimum inhibitory concentration ([1]; C. glabrata clinical yeast strain 2): 8
Minimum inhibitory concentration ([1]; C. glabrata clinical yeast strain 3): 8
Minimum inhibitory concentration ([1]; C. glabrata clinical yeast strain 4): 64
Minimum inhibitory concentration ([2]; Proteus mirabilis clinical strain 1): >128
Minimum inhibitory concentration ([2]; Proteus mirabilis clinical strain 2): 32
Minimum inhibitory concentration ([2]; Proteus mirabilis clinical strain 3): 64
Minimum inhibitory concentration ([2]; Proteus mirabilis clinical strain 4): >128
Minimum inhibitory concentration ([2]; Proteus mirabilis clinical strain 5): >128
MICs against Proteus mirabilis ([2]; clinical strains): 64 to 128 µg/mL
Minimum inhibitory concentration ([3]; Serratia marcescens clinical strain 1): 64
Minimum inhibitory concentration ([3]; Serratia marcescens clinical strain 2): 64
Minimum inhibitory concentration ([3]; Serratia marcescens clinical strain 3): 64
Minimum inhibitory concentration ([3]; Serratia marcescens clinical strain 4): 64
Minimum inhibitory concentration ([3]; Serratia marcescens clinical strain 5): 128
MICs against Serratia marcescens ([3]; clinical strains): 64 to 128 µg/mL
Minimum inhibitory concentration ([4]; Streptococcus pneumoniae clinical strain 1): 8
Minimum inhibitory concentration ([4]; Streptococcus pneumoniae clinical strain 2): 4
Minimum inhibitory concentration ([4]; Streptococcus pneumoniae clinical strain 3): 2
Minimum inhibitory concentration ([4]; Streptococcus pneumoniae clinical strain 4): 4
Minimum inhibitory concentration ([4]; Streptococcus pneumoniae clinical strain 5): 4
Minimum inhibitory concentration ([5]; Staphylococcus aureus clinical strain 1): 1
Minimum inhibitory concentration ([5]; Staphylococcus aureus clinical strain 2): 1
Minimum inhibitory concentration ([5]; Staphylococcus aureus clinical strain 3): 1
Minimum inhibitory concentration ([5]; Staphylococcus aureus clinical strain 4): 1
Minimum inhibitory concentration ([5]; Staphylococcus aureus clinical strain 5): 1
Minimum inhibitory concentration ([6]; Enterobacter cloacae clinical strain 1): 1
Minimum inhibitory concentration ([6]; Enterobacter cloacae clinical strain 2): 2
Minimum inhibitory concentration ([6]; Enterobacter cloacae clinical strain 3): 2
Minimum inhibitory concentration ([6]; Enterobacter cloacae clinical strain 4): 2
Minimum inhibitory concentration ([6]; Enterobacter cloacae clinical strain 5): 1
Minimum inhibitory concentration ([7]; Acinetobacter baumannii clinical strain 1): 4
Minimum inhibitory concentration ([7]; Acinetobacter baumannii clinical strain 2): 4
Minimum inhibitory concentration ([7]; Acinetobacter baumannii clinical strain 3): 4
Minimum inhibitory concentration ([7]; Acinetobacter baumannii clinical strain 4): 4
Minimum inhibitory concentration ([7]; Acinetobacter baumannii clinical strain 5): 4
Minimum inhibitory concentration ([8]; Candida albicans clinical yeast strain 1): 16
Minimum inhibitory concentration ([8]; Candida albicans clinical yeast strain 2): 8
Minimum inhibitory concentration ([8]; Candida albicans clinical yeast strain 3): 8
Minimum inhibitory concentration ([8]; Candida albicans clinical yeast strain 4): 16
Minimum inhibitory concentration ([8]; Candida albicans clinical yeast strain 5): 8
Minimum inhibitory concentration [9]: 8
MICs against all the bacteria and yeasts tested [10]: 0.5 to 32 µg/mL
Minimum inhibitory concentration ([11]; Escherichia coli clinical strain 1): 16
Minimum inhibitory concentration ([11]; Escherichia coli clinical strain 2): 1
Minimum inhibitory concentration ([11]; Escherichia coli clinical strain 3): 1
Minimum inhibitory concentration ([11]; Escherichia coli clinical strain 4): 1
Minimum inhibitory concentration ([11]; Escherichia coli clinical strain 5): 1
Minimum inhibitory concentration ([12]; Pseudomonas aeruginosa clinical strain 1): 4
Minimum inhibitory concentration ([12]; Pseudomonas aeruginosa clinical strain 2): 4
Minimum inhibitory concentration ([12]; Pseudomonas aeruginosa clinical strain 3): 4
Minimum inhibitory concentration ([12]; Pseudomonas aeruginosa clinical strain 4): 2
Minimum inhibitory concentration ([12]; Pseudomonas aeruginosa clinical strain 5): 2
Minimum inhibitory concentration ([13]; Klebsiella pneumoniae clinical strain 1): 2
Minimum inhibitory concentration ([13]; Klebsiella pneumoniae clinical strain 2): 2
Minimum inhibitory concentration ([13]; Klebsiella pneumoniae clinical strain 3): 4
Minimum inhibitory concentration ([13]; Klebsiella pneumoniae clinical strain 4): 4
Minimum inhibitory concentration ([13]; Klebsiella pneumoniae clinical strain 5): 2
Minimum inhibitory concentration ([14]; C. parapsilosis clinical yeast strain 1): 8
Minimum inhibitory concentration ([14]; C. parapsilosis clinical yeast strain 2): 8
Minimum inhibitory concentration ([14]; C. parapsilosis clinical yeast strain 3): 8
Minimum inhibitory concentration ([14]; C. parapsilosis clinical yeast strain 4): 8
